8 compounds from ChEMBL document CHEMBL3045226, “Synthesis and anti-tubercular evaluation of some novel pyrazolo[3,4-d]pyrimidine derivatives” (2012) can be followed below.

Assay [1] relates to Mycobacterium tuberculosis. The assay is described as follows: Antimicrobial activity against Mycobacterium tuberculosis H37Rv. In kind it is functional.
The test system of assay [2] is Mycobacterium tuberculosis. Briefly: Antimicrobial activity against Mycobacterium tuberculosis H37Rv at < 6.25 ug/ml. It counts as functional.

Molecules are shown by their SMILES. A value given as a limit tells only on which side of the number the result lay.

`CC1=NN(c2ccc3c(c2)Nc2ccccc2S3)C2N=C(S)NC(c3ccc(O)cc3)C12` (stereo unspecified) displayed a minimum inhibitory concentration (MIC) in assay [1] of over 6.25 mg/L. In assay [2], the “inhibition (INH)” value is 68%.

In turn, `CC1=NN(c2ccc3c(c2)Nc2ccccc2S3)C2N=C(S)NC(c3ccccc3Cl)C12` (stereo unspecified) displayed an MIC in assay [1] of under 6.25 mg/L. Besides, the “inhibition (INH)” value in assay [2] worked out at 91%.

The compound `CC1=NN(c2ccc3c(c2)Nc2ccccc2S3)C2N=C(S)NC(c3ccc(Cl)cc3)C12` (stereo unspecified) returned a minimum inhibitory concentration (MIC) in assay [1] of over 6.25 mg/L. For the same compound, in assay [2], the “inhibition (INH)” value is 74%.

In assay [1], `CC1=NN(c2ccc3c(c2)Nc2ccccc2S3)C2N=C(S)NC(c3ccccc3[N+](=O)[O-])C12` (stereo unspecified) registered an MIC of under 6.25 mg/L. Moreover, the “inhibition (INH)” value in assay [2] is given as 96%.

Take `CC1=NN(c2ccc3c(c2)Nc2ccccc2S3)C2N=C(S)NC(c3ccc([N+](=O)[O-])cc3)C12` (stereo unspecified): in assay [1], the minimum inhibitory concentration (MIC) was over 6.25 mg/L. Besides, the “inhibition (INH)” value in assay [2] is 54%.

Regarding `COc1ccc(C2NC(S)=NC3C2C(C)=NN3c2ccc3c(c2)Nc2ccccc2S3)cc1` (stereo unspecified), in assay [1], the MIC was over 6.25 mg/L. In assay [2], the “inhibition (INH)” value was 63%.

`CC1=NN(c2ccc3c(c2)Nc2ccccc2S3)C2N=C(S)NC(c3ccccc3)C12` (stereo unspecified) yielded an MIC in assay [1] of over 6.25 mg/L. Besides, the “inhibition (INH)” value in assay [2] is given as 75%.

In turn, `CC1=NN(c2ccc3c(c2)Nc2ccccc2S3)C2N=C(S)NC(c3ccccc3O)C12` (stereo unspecified) displayed an MIC in assay [1] of under 6.25 mg/L. Moreover, the “inhibition (INH)” value in assay [2] is given as 93%.
